Experimental data taken from patent US20260224571A1, “AZACYCLOALKANE COMPOUND AND PHARMACEUTICAL COMPOSITION, AND USE THEREOF” (Prime Gene Therapeutics Co., Ltd., priority 2023, published 2026).
Counter-ions that a name gives are not always drawn.

Tests used:
[1] = tested on: phosphorylation of myosin light chain T18/S19; assay: In Cell Western for phosphorylation of myosin light chain in A7r5 cells; type: cell-based; conditions: rat smooth muscle cell line A7r5, 1 hour with compound, phospho-MLC-T18/S19; read-out: cellular activity IC50
Source text: The rat smooth muscle cell line A7r5 was used, and the A7r5 cell culture conditions were DMEM containing 10% FBS. Phspho-MLC-T18/S19 specific antibody and a second detection antibody were used to detect the phosphorylation level of myosin light chain by In Cell Western. Cells treated with positive compounds were used as positive controls, while the group without compounds but with compound solvents was used as negative controls. DRAQ5 stained cell nuclei were used as internal references. GraphPad Prism 7.0 software was used, and fitting was carried out by using a non-linear regression curve with varying slopes to determine the absolute IC50 value.
On the first day, A7r5 cells were resuspended in serum-free medium and seeded into 384 wells of PDL coated transparent black plates at a density of 5000 cells per well. Serum starvation culture was performed for 4 hours, and the cells were incubated with the compound in serum-free medium for 1 hour. 50 μL of 8% PFA (polyformaldehyde) was added to each well and fixed at room temperature for 1 hour. The liquid in the wells was discard and 90 μL of ice methanol was added to each well to permeabilize the cells at 4° C. for 1 hour. Then, PBST (0.1% Tween20-PBS) was added using an automatic separator to wash three times. After patting the plate for drying, 50 μL blocking solution was added to each well for sealing at room temperature for 1 hour. The phspho-MLC-T18/S19 specific antibody was diluted with the blocking solution at a ratio of 1:200. After adding 20 μL to each well, incubation was carried out overnight at 4° C. with a sealed film.
On the second day, the liquid in the wells was discarded and PBST was added using an automatic separator to wash the plate 5 times. After patting the plate for drying, the second detection antibody was diluted with blocking solution at a ratio of 1:800 and DRAQ5 at a ratio of 1:1000. After adding 20 μL to each well, incubation was carried out at room temperature for 1 hour. Then, the liquid in the wells was discarded and PBST was added using an automatic separator to wash the plate 3 times, followed by adding ddH2O to wash the plate 3 times. After patting the plate for drying, it was scanned using a LICOR Odyssey near-infrared imaging scanner.

ROCK1 = ROCK1 (Homo sapiens, UniProt Q13464); assay: ROCK1 kinase enzymatic activity (HTRF, STK2 substrate); type: biochemical; conditions: ROCK1 kinase reacted at room temperature for 20 minutes
Sequence of ROCK1 (Q13464 whole entry): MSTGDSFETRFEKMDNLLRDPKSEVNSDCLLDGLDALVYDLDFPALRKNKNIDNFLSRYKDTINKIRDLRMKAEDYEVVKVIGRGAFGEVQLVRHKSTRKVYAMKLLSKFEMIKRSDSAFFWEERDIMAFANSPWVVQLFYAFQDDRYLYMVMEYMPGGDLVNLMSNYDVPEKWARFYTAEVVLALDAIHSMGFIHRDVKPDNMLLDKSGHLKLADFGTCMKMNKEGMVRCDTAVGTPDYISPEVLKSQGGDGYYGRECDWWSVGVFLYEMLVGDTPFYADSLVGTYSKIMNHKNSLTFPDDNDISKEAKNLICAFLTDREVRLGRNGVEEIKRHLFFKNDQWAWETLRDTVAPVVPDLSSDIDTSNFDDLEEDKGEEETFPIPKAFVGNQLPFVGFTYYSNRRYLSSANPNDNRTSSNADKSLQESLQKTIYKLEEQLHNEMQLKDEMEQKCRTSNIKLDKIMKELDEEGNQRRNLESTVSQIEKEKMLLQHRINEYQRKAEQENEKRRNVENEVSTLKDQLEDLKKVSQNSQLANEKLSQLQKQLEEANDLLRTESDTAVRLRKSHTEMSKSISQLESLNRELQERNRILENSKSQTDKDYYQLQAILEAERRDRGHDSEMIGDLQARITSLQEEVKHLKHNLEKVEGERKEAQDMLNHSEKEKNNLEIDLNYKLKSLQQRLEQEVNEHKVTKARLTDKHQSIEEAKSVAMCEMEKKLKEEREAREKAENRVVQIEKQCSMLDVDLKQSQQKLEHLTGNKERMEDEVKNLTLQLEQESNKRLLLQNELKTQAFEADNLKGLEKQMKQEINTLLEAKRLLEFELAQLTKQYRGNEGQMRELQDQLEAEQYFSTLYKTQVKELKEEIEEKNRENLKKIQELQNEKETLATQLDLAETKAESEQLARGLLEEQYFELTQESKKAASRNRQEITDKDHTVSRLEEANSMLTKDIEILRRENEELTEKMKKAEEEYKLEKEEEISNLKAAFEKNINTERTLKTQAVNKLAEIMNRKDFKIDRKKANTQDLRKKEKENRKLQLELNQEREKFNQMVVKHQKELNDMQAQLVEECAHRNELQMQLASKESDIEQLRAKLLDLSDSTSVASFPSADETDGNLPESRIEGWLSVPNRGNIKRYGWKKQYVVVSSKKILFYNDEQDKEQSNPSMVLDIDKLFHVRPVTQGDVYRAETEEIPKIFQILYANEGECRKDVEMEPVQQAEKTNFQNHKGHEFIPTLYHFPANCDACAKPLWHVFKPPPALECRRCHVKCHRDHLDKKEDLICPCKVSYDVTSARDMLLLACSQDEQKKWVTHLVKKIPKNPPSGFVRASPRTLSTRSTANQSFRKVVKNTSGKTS
Source text: (§1) The kinase activity data was expressed by comparing the kinase activity of the test compound and that of the blank group (containing only DMSO), and the IC50 value was obtained by curve fitting using Prism software (GraphPad7.0).

ROCK2 = ROCK2 (Homo sapiens, UniProt O75116); assay: ROCK2 kinase enzymatic activity (HTRF, STK2 substrate); type: biochemical; conditions: ROCK2 kinase reacted at room temperature for 30 minutes
Sequence of ROCK2 (O75116 whole entry): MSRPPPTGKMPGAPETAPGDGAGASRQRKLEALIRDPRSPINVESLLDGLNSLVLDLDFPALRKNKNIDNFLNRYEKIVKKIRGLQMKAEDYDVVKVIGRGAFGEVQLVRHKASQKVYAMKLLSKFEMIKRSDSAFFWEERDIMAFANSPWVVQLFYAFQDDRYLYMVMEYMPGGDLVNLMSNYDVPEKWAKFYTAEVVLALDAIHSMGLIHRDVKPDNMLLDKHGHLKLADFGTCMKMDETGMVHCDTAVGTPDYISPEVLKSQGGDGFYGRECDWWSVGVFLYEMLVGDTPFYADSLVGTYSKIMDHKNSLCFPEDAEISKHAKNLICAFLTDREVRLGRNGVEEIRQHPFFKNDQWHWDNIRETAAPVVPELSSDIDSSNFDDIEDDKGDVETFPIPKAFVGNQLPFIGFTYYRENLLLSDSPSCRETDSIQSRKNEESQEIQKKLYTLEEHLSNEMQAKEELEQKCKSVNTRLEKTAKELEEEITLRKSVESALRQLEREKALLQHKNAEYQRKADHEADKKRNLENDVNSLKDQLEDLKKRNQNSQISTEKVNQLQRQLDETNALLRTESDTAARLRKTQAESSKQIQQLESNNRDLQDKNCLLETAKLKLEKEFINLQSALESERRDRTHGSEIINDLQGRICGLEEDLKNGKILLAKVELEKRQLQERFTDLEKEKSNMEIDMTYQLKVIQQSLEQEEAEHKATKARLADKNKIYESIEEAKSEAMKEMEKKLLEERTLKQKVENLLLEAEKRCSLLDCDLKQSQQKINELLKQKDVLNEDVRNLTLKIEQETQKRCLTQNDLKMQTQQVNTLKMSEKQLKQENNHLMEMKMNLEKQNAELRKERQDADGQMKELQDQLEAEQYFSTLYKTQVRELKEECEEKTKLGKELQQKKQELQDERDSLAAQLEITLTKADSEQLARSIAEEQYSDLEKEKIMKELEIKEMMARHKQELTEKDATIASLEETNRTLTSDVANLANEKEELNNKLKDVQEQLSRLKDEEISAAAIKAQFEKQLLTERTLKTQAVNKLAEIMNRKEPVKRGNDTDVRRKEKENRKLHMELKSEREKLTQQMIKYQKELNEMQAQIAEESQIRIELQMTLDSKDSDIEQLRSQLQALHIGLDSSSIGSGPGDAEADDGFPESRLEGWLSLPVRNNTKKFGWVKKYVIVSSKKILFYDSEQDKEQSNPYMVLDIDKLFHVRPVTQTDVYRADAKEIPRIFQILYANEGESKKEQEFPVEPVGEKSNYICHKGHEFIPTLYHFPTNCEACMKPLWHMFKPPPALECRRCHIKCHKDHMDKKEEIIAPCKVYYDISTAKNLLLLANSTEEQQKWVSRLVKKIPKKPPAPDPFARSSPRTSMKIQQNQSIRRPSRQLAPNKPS
Source text: as §1

Row | IC50 [1] [nM] | IC50 (ROCK1) [nM] | IC50 (ROCK2) [nM] | SMILES
1 | 1590 | < 50 | < 50 | CN=S(C)(=O)N1CC(CC#N)(n2cc(-c3ncnc4[nH]ccc34)c(N)n2)C1 (stereo not drawn) [Example 37, 2-(3-(3-amino-4-(7H-pyrrolo[2,3-d]pyrimidin-4-yl)-1H-pyrazol-1-yl)-1-(N,S-dimethylsulfonylimino)azetidine-3-yl)acetonitrile]
2 | > 10000 | > 100 | > 100 | Cn1cc(Nc2cc(-c3cn(C4(CC#N)CN(S(C)(=O)=O)C4)nc3N)ncn2)cn1 [Example 69]
3 | > 10000 | < 50 | > 100 | N#CCC1(n2cc(-c3ncnc4[nH]ccc34)c(O)n2)CN(C(=O)NCC(F)(F)F)C1 [Example 55, 3-(cyanomethyl)-3-(3-hydroxyl-4-(7H-pyrrolo[2,3-d]pyrimidin-4-yl)-1H-pyrazol-1-yl)-N-(2,2,2-trifluoroethyl)azetidine-1-formamide]
4 | 826 | < 5 | < 5 | C[C@@H](N)CS(=O)(=O)N1CC(CC#N)(n2cc(-c3ncnc4[nH]ccc34)c(N)n2)C1 [Example 88, (R)-2-(3-(3-amino-4-(7H-pyrrolo[2,3-d]pyrimidin-4-yl)-1H-pyrazol-1-yl)-1-((2-aminopropyl)sulfonyl)azetidine-3-yl)acetonitrile trifluoroacetate salt]
5 | 181 | < 5 | < 5 | CCNc1nn(C2(CC#N)CN(S(=O)(=O)C(F)(F)F)C2)cc1-c1ncnc2[nH]ccc12 [Example 6, 2-(3-(3-(ethylamino)-4-(7H-pyrrolo[2,3-d]pyrimidin-4-yl)-1H-pyrazol-1-yl)-1-((trifluoromethyl)sulfonyl)azetidine-3-yl)acetonitrile]
6 | 951 | < 5 | < 5 | CC(=O)Nc1nn(C2(CC#N)CN(S(=O)(=O)C(F)(F)F)C2)cc1-c1ncnc2[nH]ccc12 [Example 5]
7 | 5010 | < 10 | < 10 | N#CCC1(n2cc(-c3ncnc4[nH]ccc34)c(N)n2)CN(S(=O)(=O)CC(F)(F)F)C1 [Example 1, 2-(3-(3-amino-4-(7-H-pyrrolo[2,3-d]pyrimidin-4-yl)-1H-pyrazol-1-yl)-1-((2,2,2-trifluoroethyl)sulfonyl)azetidine-3-yl)acetonitrile]
8 | 132 | < 5 | < 5 | CN(C)CCNc1nn(C2(CC#N)CN(S(=O)(=O)C(F)(F)F)C2)cc1-c1ncnc2[nH]ccc12 [Example 7, 2-(3-(3-((2-(dimethylamino)ethyl)amino)-4-(7H-pyrrolo[2,3-d]pyrimidin-4-yl)-1H-pyrazol-1-yl)-1-((trifluoromethyl)sulfonyl)azetidine-3-yl)acetonitrile]
9 | 381 | < 5 | < 5 | N#CCC1(n2cc(-c3ncnc4[nH]ccc34)c(N)n2)CN(C(=O)[C@H]2C[C@@H]2F)C1 [Example 31, 2-(3-(3-amino-4-(7H-pyrrolo[2,3-d]pyrimidin-4-yl)-1H-pyrazol-1-yl)-1-((1R, 2S)-2-fluorocyclopropane-1-carbonyl)azetidine-3-yl)acetonitrile]
10 | 91 | < 10 | < 10 | CCNS(=O)(=O)N1CC(CC#N)(n2cc(-c3ncnc4[nH]ccc34)c(N)n2)C1 [Example 41, 3-(3-amino-4-(7H-pyrrolo[2,3-d]pyrimidin-4-yl)-1H-pyrazol-1-yl)-3-(cyanomethyl)-N-ethylazetidine-1-sulfonamide]
11 | 98 | < 10 | < 10 | N#CCNS(=O)(=O)N1CC(CC#N)(n2cc(-c3ncnc4[nH]ccc34)c(N)n2)C1 [Example 50, 3-(3-amino-4-(7H-pyrrolo[2,3-d]pyrimidin-4-yl)-1H-pyrazol-1-yl)-N,3-bis(cyanomethyl)azetidine-1-sulfonamide]
12 | 579 | < 5 | < 5 | N#CCC1(n2cc(-c3ncnc4[nH]ccc34)c(N)n2)CN(S(N)(=O)=O)C1 [Example 45, 3-(3-amino-4-(7H-pyrrolo[2,3-d]pyrimidin-4-yl)-1H-pyrazol-1-yl)-3-(cyanomethyl)azetidine-1-sulfonamide]
13 | 152 | < 5 | < 5 | CS(=O)(=O)CS(=O)(=O)N1CC(CC#N)(n2cc(-c3ncnc4[nH]ccc34)c(N)n2)C1 [Example 8]
14 | 3130 | < 5 | < 5 | CCS(=N)(=O)N1CC(CC#N)(n2cc(-c3ncnc4[nH]ccc34)c(N)n2)C1 (stereo not drawn) [Example 38, 2-(3-(3-amino-4-(7H-pyrrolo[2,3-d]pyrimidin-4-yl)-1H-pyrazol-1-yl)-1-(ethylsulfonylimino)azetidine-3-yl)acetonitrile]
15 | > 10000 | > 100 | > 100 | CCS(=O)(=O)N1CC(CC#N)(n2cc(-c3cc(-c4cnn(C)c4)nc4ccnn34)c(N)n2)C1 [Example 82]
16 | 678 | < 5 | < 5 | C[C@H](N)CS(=O)(=O)N1CC(CC#N)(n2cc(-c3ncnc4[nH]ccc34)c(N)n2)C1 [Example 87, (S)-2-(3-(3-amino-4-(7H-pyrrolo[2,3-d]pyrimidin-4-yl)-1H-pyrazol-1-yl)-1-((2-aminopropyl)sulfonyl)azetidine-3-yl)acetonitrile trifluoroacetate salt]
17 | 551 | < 10 | < 10 | N#CCC1(n2cc(-c3ncnc4[nH]ccc34)c(N)n2)CN(C(=O)[C@@H]2CC2(F)F)C1 [Example 34, (S)-2-(3-(3-amino-4-(7H-pyrrolo[2,3-d]pyrimidin-4-yl)-1H-pyrazol-1-yl)-1-(2,2-difluorocyclopropane-1-carbonyl)azetidine-3-yl)acetonitrile]
18 | 1570 | < 10 | < 10 | N#CCC1(n2cc(-c3ncnc4[nH]ccc34)c(N)n2)CN(S(=O)(=O)NCC(F)(F)F)C1 [Example 40, 3-(3-amino-4-(7H-pyrrolo[2,3-d]pyrimidin-4-yl)-1H-pyrazol-1-yl)-3-(cyanomethyl)-N-(2,2,2-trifluoroethyl)azetidine-1l-sulfonamide]
19 | 178 | < 5 | < 5 | CS(=O)(=O)N1CCC(CC#N)(n2cc(-c3ncnc4[nH]ccc34)c(N)n2)C1 (stereo not drawn) [Example 3, 2-(3-(3-amino-4-(7H-pyrrolo[2,3-d]pyrimidin-4-yl)-1H-pyrazol-1-yl)-1-(methylsulfonyl)pyrrolidin-3-yl)acetonitrile]
20 | > 10000 | > 100 | > 100 | N#CCC1(n2cc(-c3ncnc4[nH]ccc34)c(C(N)=O)n2)CN(C(=O)NCC(F)(F)F)C1 [Example 61, 1-(3-(cyanomethyl)-1-((2,2,2-trifluoroethyl)carbamoyl)azetidine-3-yl)-4-(7H-pyrrolo[2,3-d]pyrimidin-4-yl)-1H-pyrazol-3-formamide]
21 | – | < 10 | < 10 | CN(C)CCNS(=O)(=O)N1CC(CC#N)(n2cc(-c3ncnc4[nH]ccc34)c(N)n2)C1 [Example 52, 3-(3-amino-4-(7H-pyrrolo[2,3-d]pyrimidin-4-yl)-1H-pyrazol-1-yl)-3-(cyanomethyl)-N-(2-(dimethylamino)ethyl)azetidine-1-sulfonamide]

Row | SMILES | IC50 [1] [nM] | IC50 (ROCK1) [nM] | IC50 (ROCK2) [nM]
22 | Cc1ccc(C(=O)OCc2ccc([C@@H](CN)C(=O)Nc3ccc4cnccc4c3)cc2)c(C)c1 [Netarsudil, reference compound] | 288 | – | –
